Read-outs that look alike come from different tables or passages of the source.
Legend:
[1] = biological target: P. falciparum LDH (Plasmodium falciparum, UniProt Q27743); experiment: fluorescence-coupled LDH enzyme assay on microfluidics system, continuously variable concentration gradient, fit to Equation 4; format: biochemical
From the text: A fluorescence-coupled enzyme assay was developed using a microfluidics system described herein for creating a continuously variable concentration gradient to monitor the reduction of NAD^+ by the enzyme LDH to give a fluorescent end product. This system was then adapted to measure potency and determine mechanism of inhibition by various inhibitors of LDH.
One of the products of the reaction in the assay, NADH, is coupled to Thermus thermophilus NADH oxidase to generate H2O2, which in turn is coupled to horseradish peroxidase which reacts with […] and amplex red (Molecular Probes, Inc., Eugene, Oreg., U.S.A.) to give the fluorescent product resorufin. […]
The novel data analysis techniques described herein for determining the mechanism of inhibition of an inhibitor (or mechanism of activation of an activator) are applied to the data produced from the microfluidics system. The titration of the enzyme with a continuous linear variation of inhibitor and substrate from zero to a pre-determined finite concentration yields a characteristic rate profile that is defined by the specific type of interaction of the inhibitor and enzyme with respect to the substrate. […]
The titration of LDH with a linear gradient of NAD^+ was performed on the microfluidics system described herein with the change in relative fluorescence intensity monitored under initial rate conditions. […]

[2] = biological target: T1, rabbit muscle lactate dehydrogenase (LDH) (Oryctolagus cuniculus, UniProt P13491); experiment: continuous variation method on microtiter plate, step concentration gradients; format: biochemical
T1 construct: the enzyme rabbit muscle lactate dehydrogenase (LDH); from tissue; host or cells: rabbit muscle
From the text: Determination of the mechanism of inhibition by the inhibitor oxalate with respect to the substrate NAD^+ against the enzyme rabbit muscle lactate dehydrogenase (LDH) using a microtiter plate to generate individual step concentration gradients was attempted. FIG. 47 is a graph showing the results of the experiment. An attempt to determine the mechanism of inhibition by the inhibitor oxalate with respect to the substrate lactate against the enzyme rabbit muscle LDH using a microtiter plate to generate individual step concentration gradients was attempted. FIG. 48 is a graph showing the results of this experiment.

[3] = system: LDH; conditions: cited from earlier work

Sequence of P. falciparum LDH (Q27743 whole entry): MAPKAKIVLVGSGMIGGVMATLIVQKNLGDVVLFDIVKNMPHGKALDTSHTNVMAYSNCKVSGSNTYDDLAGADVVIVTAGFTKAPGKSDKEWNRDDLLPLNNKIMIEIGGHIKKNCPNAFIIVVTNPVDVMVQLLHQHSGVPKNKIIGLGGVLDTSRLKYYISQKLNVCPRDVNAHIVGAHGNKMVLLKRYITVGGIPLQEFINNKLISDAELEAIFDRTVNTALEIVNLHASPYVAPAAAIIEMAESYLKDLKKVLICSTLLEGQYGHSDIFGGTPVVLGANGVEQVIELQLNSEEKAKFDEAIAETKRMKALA

NC(=O)c1ccc[n+]([C@@H]2O[C@H](COP(=O)([O-])OP(=O)(O)OC[C@H]3O[C@@H](n4cnc5c(N)ncnc54)[C@H](O)[C@@H]3O)[C@@H](O)[C@H]2O)c1 [NAD^+]
Km ([1]; titration of LDH with linear gradient of NAD+, initial rate conditions, read-out: Km (Michaelis constant)): 54 ± 2 µM

O=C(O)C(=O)O [oxalate]
mechanism of inhibition ([1]; with respect to substrate NAD+, continuous gradient): uncompetitive inhibition
mechanism of inhibition ([2]; with respect to NAD+, ambiguous): uncompetitive inhibitor
mechanism of inhibition ([2]; with respect to lactate, not certain): competitive inhibitor
mechanism of inhibition ([3]; with respect to NAD+): uncompetitive
mechanism of inhibition ([3]; with respect to lactate): competitive inhibitor

— patent publication US7897330B2, “Methods for characterizing enzyme inhibitors” (AB Sciex, LLC, priority 2005, dated 2011)
